{
  "source": "patent US20100022574A1",
  "about": "“Methods to Treat Pain Using an Alpha-2 Adrenergic Agonist and an Endothelin Antagonist” (EndogenX, Inc., priority 2008, published 2010)",
  "key": {"[1]": {"settings": "cited from earlier work"}, "ETA receptors": {"target": "T1, ETA receptors (Homo sapiens, UniProt P25101)", "T1 sequence (P25101 21-427)": "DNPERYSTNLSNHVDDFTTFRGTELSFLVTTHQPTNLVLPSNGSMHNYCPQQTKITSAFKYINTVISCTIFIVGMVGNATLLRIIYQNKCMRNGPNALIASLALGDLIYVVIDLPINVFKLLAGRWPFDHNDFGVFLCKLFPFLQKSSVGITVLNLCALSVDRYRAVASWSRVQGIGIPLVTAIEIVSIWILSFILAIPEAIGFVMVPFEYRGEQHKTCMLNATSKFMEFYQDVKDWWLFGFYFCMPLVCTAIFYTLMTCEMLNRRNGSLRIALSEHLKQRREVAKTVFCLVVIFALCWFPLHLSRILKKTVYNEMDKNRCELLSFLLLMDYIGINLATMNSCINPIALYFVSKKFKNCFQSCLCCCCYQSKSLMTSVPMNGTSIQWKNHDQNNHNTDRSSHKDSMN", "settings": "membrane preparations; read-out: IC50, inhibition of binding of ET-1 to ETA receptors; cited from earlier work"}, "Male Swiss Webster mice": {"test_system": "Male Swiss Webster mice", "experiment": "Tail-flick latency (antinociception) in mice", "settings": "sulfisoxazole 500 mg/kg oral + morphine 4 mg/kg s.c.; AUC"}, "ETB receptors": {"target": "T2, ETB receptors (Homo sapiens, UniProt P24530)", "T2 sequence (P24530 27-442)": "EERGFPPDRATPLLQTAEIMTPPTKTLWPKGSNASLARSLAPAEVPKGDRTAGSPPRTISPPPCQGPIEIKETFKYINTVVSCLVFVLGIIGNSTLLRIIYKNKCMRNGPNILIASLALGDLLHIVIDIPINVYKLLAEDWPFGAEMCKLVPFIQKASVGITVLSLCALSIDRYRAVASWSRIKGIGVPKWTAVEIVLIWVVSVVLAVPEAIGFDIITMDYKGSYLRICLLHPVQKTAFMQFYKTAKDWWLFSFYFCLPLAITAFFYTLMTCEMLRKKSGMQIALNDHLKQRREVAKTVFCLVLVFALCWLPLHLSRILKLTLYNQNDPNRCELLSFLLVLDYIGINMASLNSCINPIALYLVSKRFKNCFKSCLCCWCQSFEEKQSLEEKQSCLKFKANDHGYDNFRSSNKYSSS", "settings": "membrane preparations; read-out: IC50, inhibition of binding of ET-1 to ETB receptors; cited from earlier work"}, "[2]": {"settings": "cited from earlier work", "remark": "listed apart in the source"}},
  "data": [
    {"substance": "4-amino-N-(3,4-dimethyloxazol-5-yl)-benzenesulfonamide [Sulfisoxazole]", "values": [
      {"measurement": "solubility", "setting": "[1]", "result": "highly soluble"},
      {"measurement": "IC50", "setting": "ETA receptors", "result": 0.6, "unit": "µM"},
      {"measurement": "potentiation of antinociception produced by morphine", "setting": "Male Swiss Webster mice", "result": 14, "unit": "%"},
      {"measurement": "IC50", "setting": "ETB receptors", "result": 22, "unit": "µM"},
      {"measurement": "average steady state plasma concentration, mean", "setting": "[2]; 500 mg oral four times a day, healthy volunteers", "result": 63.4, "unit": "µg/mL"},
      {"measurement": "drug excreted in urine by kidney", "setting": "[2]; in 24 hours", "result": 95, "unit": "%"},
      {"measurement": "binding to plasma proteins", "setting": "[2]; in vivo", "result": "extensively bound to plasma proteins"},
      {"measurement": "maximum blood level (adverse reactions more frequent above)", "setting": "[2]; in vivo", "result": "≤ 200", "unit": "µg/mL"}
    ]}
  ]
}
